In brackets after ≈: the same amount, converted by molar mass. Entries after “also recorded” stand apart in the source; their conditions may differ. Read-outs that look alike come from different tables or passages of the source.
Assays:
[1] = system: MRSA USA400 MW2; assay: Time-kill in MHB; format: cell-based, Staphylococcus aureus; settings: 20 μM; detection limit 2.3 Log(CFU/ml)
Description: FIG. 9. Influence of V and V-r8 (both at 20 μM) on cell viability for MRSA USA400 MW2 in MHB.

[2] = system: E. faecium Van-Susceptible; assay: microbe, parasite or virus in culture; settings: Enterococcus faecium, read-out: E. faecium MICs Van-Susceptible
Description: (§1) Determination of MICs. MICS were determined using broth microdilution in accordance with CLSI methods.^6 One day prior to each MIC experiment, bacterial strains were streaked for single colonies from frozen glycerol stocks stored at −80° C. on Tryptic soy agar. 3-5 colonies from each plate were harvested with a disposable inoculating loop and resuspended in 500 μL PBS. This suspension was diluted in sterile-filtered PBS to an OD of 0.1(˜1×10^8 CFU/ml), and the OD 0.1 suspension was diluted 1:100 in Mueller-Hinton Broth (MHB, Difco 257530) just prior to inoculating the 96-well polypropylene treatment plate. The treatment plate was prepared as follows: 20-fold stocks of the highest concentration of compound tested were prepared in sterile-filtered PBS and were subsequently diluted in MHB to prepare working stocks at 2-times the final concentration. 100 μL of each working stock was placed in the highest concentration treatment well, and the working stocks were 2-fold serially diluted in MHB to lend final treatment volumes of 50 μL/well. 50 μL of adjusted inoculum was added to each well to lend a total volume of 100 μL/well and a final inoculum density of ˜5×10^5 colony forming units (CFU/ml). 10 μL of inoculum in growth control wells was serially diluted in PBS and plated on Tryptic soy agar to verify accurate starting density of cells. […]

[3] = system: USA300 LAC biofilm wound; assay: Murine skin wound excisional biofilm model; settings: 0.05% solution topical, 5 h treatment, 24 h post infection, compared to untreated mice
[4] = system: V. cholerae El Tor A1552R; assay: microbe, parasite or virus in culture; settings: Vibrio cholerae, ELTORA1552R, read-out: Median MIC
[5] = system: A. baumannii; assay: MIC, Gram-negative planktonic strains; settings: Acinetobacter baumannii
Description: as §1

[6] = system: E. faecalis Van-Resistant; assay: microbe, parasite or virus in culture; settings: Enterococcus faecalis, read-out: E. faecalis MICs Van-Resistant
Description: (§2) MICS were determined using broth microdilution in accordance with CLSI methods.^6 One day prior to each MIC experiment, bacterial strains were streaked for single colonies from frozen glycerol stocks stored at −80° C. on Tryptic soy agar. 3-5 colonies from each plate were harvested with a disposable inoculating loop and resuspended in 500 μL PBS. This suspension was diluted in sterile-filtered PBS to an OD of 0.1(˜1×10^8 CFU/ml), and the OD 0.1 suspension was diluted 1:100 in Mueller-Hinton Broth (MHB, Difco 257530) just prior to inoculating the 96-well polypropylene treatment plate. The treatment plate was prepared as follows: 20-fold stocks of the highest concentration of compound tested were prepared in sterile-filtered PBS and were subsequently diluted in MHB to prepare working stocks at 2-times the final concentration. 100 μL of each working stock was placed in the highest concentration treatment well, and the working stocks were 2-fold serially diluted in MHB to lend final treatment volumes of 50 μL/well. 50 μL of adjusted inoculum was added to each well to lend a total volume of 100 μL/well and a final inoculum density of ˜5×10^5 colony forming units (CFU/ml). 10 μL of inoculum in growth control wells was serially diluted in PBS and plated on Tryptic soy agar to verify accurate starting density of cells. Growth controls were included in each plate, where no treatment was applied, along with media only controls. Edge wells were filled with PBS. The completed assay plate was sealed with parafilm, placed in a lidded plastic tray lined with moistened paper towels, and incubated at 37° C. for 18-20 h.

[7] = system: MRSA USA300 biofilms; assay: Biofilm reduction in vitro after 5 h treatment, Calgary Biofilms Device; format: cell-based, Staphylococcus aureus; settings: for Log CFU/ml counts: 5 h treatment, median (IQR), untreated 4.5, detection limit 2 Log
[8] = system: MSSA (29213); assay: microbe, parasite or virus in culture; settings: Staphylococcus aureus, read-out: Minimum Inhibitory Concentration (MIC)
Description: as §2

[9] = system: MRSA (USA300LAC); assay: microbe, parasite or virus in culture; settings: Staphylococcus aureus, read-out: Minimum Inhibitory Concentration (MIC)
Description: (§3) Determination of MICs. MICS were determined using broth microdilution in accordance with CLSI methods.^6 One day prior to each MIC experiment, bacterial strains were streaked for single colonies from frozen glycerol stocks stored at −80° C. on Tryptic soy agar. 3-5 colonies from each plate were harvested with a disposable inoculating loop and resuspended in 500 μL PBS. This suspension was diluted in sterile-filtered PBS to an OD of 0.1(˜1×10^8 CFU/ml), and the OD 0.1 suspension was diluted 1:100 in Mueller-Hinton Broth (MHB, Difco 257530) just prior to inoculating the 96-well polypropylene treatment plate. The treatment plate was prepared as follows: 20-fold stocks of the highest concentration of compound tested were prepared in sterile-filtered PBS and were subsequently diluted in MHB to prepare working stocks at 2-times the final concentration. 100 μL of each working stock was placed in the highest concentration treatment well, and the working stocks were 2-fold serially diluted in MHB to lend final treatment volumes of 50 μL/well. 50 μL of adjusted inoculum was added to each well to lend a total volume of 100 μL/well and a final inoculum density of ˜5×10^5 colony forming units (CFU/ml). 10 μL of inoculum in growth control wells was serially diluted in PBS and plated on Tryptic soy agar to verify accurate starting density of cells. Growth controls were included in each plate, where no treatment was applied, along with media only controls. Edge wells were filled with PBS. The completed assay plate was sealed with parafilm, placed in a lidded plastic tray lined with moistened paper towels, and incubated at 37° C. for 18-20 h.

[10] = system: MRSA USA300 LAC persister cells; assay: Time-kill of persister cells generated with ciprofloxacin; format: cell-based, Staphylococcus aureus; settings: for killing of persister cells: in words
Description: FIG. 1. Time-kill study of MRSA USA300 LAC persister cells treated with vancomycin and V-r8. MRSA persister cells were generated by treatment with ciprofloxacin at 40 μM for 6 h. Vancomycin or V-r8 (TFA salt) was then introduced at a concentration of 10 μM. Data points are median Log(CFU/ml) values from 2 independent experiments (N=2) where treatments were performed in singlicate. Error bars represent IQR. Detection limit: 1 Log(CFU/ml).
Evaluation of antibacterial activity against persister cells. USA300 persister cells were generated by diluting an overnight culture of USA300 bacteria 1:1000 in 4 mL MHB and growing to OD 0.5 at 37° C. with 200 rpm shaking. […] Upon 6 h treatment with ciprofloxacin, 500 μL culture aliquots were added to Eppendorf tubes and compounds were added from concentrated stocks (mM range) to yield desired final concentrations (10-20 μM). […] CFU/ml were plated at indicated time points to monitor treatment efficacy. The experiment was performed at least twice on separate days.

[11] = system: MSSA (29213) biofilm
Description: (§4) Determination of MBECs. Minimum Biofilm Eradication Concentrations (MBECs) were determined in accordance with literature methods. Prior to each assay, 4 mL Tryptic Soy broth (TSB) was inoculated with one colony of S. aureus 29213, MW2 or USA300 and incubated at 37° C., 200 rpm shaking until stationary phase was reached (OD>2). The cultures were adjusted to in TSB to achieve a final inoculum density of 1×10^7 CFU/ml, and 150 μL of inoculum was added to each well of a 96-well base plate (Nunc™ 269787), and a plate lid containing 96 pegs (Nunc™ 445497) was added to the base. The entire apparatus was sealed with parafilm and placed in a sealed plastic bag lined with moistened paper towels for 48 h growth with shaking (150 rpm) at 35° C.
(§5) To prepare biofilm treatment plates, 20-fold stocks of the highest concentration tested were made in sterile-filtered PBS. The 20-fold stocks were diluted in TSB to yield 2-fold working stocks; 200 μL of working stock was added to the highest concentration treatment well and 2-fold serially diluted across the plate to lend final treatment volumes of 100 μL/well. TSB was added to treatment wells to yield final volume of 200 μL/well. PBS was added to the edge wells of the 96-well plate.
(§6) Prior to treatment, 48 h biofilms were rinsed in a 96-well plate containing 200 μL PBS/well for one minute and then the peg lid was transferred to the treatment plate. The plate was parafilmed and incubated at 35° C. for 24 h with 150 rpm shaking. Upon 24 h treatment, the peg lid was removed, rinsed in 200 μL PBS buffer twice for 1 min each, then transferred to a recovery plate containing 200 μL TSB+1% Tween-20 per well. The apparatus was placed in a steel tray and sonicated in a water bath sonicator (Branson 1510) for 10 min to dislodge biofilms. The peg lid was subsequently removed and the media-containing plate was incubated for 20 h at 35° C. with 150 rpm shaking to recover biofilms. The MBEC was read as the lowest treatment concentration where no growth occurred, as determined by measuring by OD600 on a plate reader. […]

[12] = system: E. faecium Van-Resistant; assay: microbe, parasite or virus in culture; settings: Enterococcus faecium, read-out: E. faecium MICs Van-Resistant
Description: as §2

[13] = system: E. faecalis Van-Resistant
Description: as §2

[14] = system: E. coli UTI89; assay: microbe, parasite or virus in culture; settings: Escherichia coli, UTI89, read-out: Median MIC
Description: as §2

[15] = system: E. faecalis Van-Susceptible; assay: microbe, parasite or virus in culture; settings: Enterococcus faecalis, read-out: E. faecalis MICs Van-Susceptible
Description: as §1

[16] = system: MRSA (USA400MW2); assay: microbe, parasite or virus in culture; settings: Staphylococcus aureus, read-out: Minimum Inhibitory Concentration (MIC)
Description: as §2

[17] = system: MRSA (USA400MW2) biofilm
Description: as §4
To prepare biofilm treatment plates, 20-fold stocks of the highest concentration tested were made in sterile-filtered PBS. […]
Prior to treatment, 48 h biofilms were rinsed in a 96-well plate containing 200 μL PBS/well for one minute and then the peg lid was transferred to the treatment plate. […] The MBEC was read as the lowest treatment concentration where no growth occurred, as determined by measuring by OD600 on a plate reader. […]

[18] = system: MW2 stationary-phase cells; assay: Bacterial membrane integrity with SYTOX Green; settings: V, V-r8 20 μM; lysostaphin 10×MIC
Description: V-r8 mode-of-action analysis using stationary-phase MW2. All data points represent the median of biological duplicates from a representative experiment; all experiments were repeated on a different day to ensure reproducibility. V-r8 was the TFA salt, and PBS was used for the cell only control. […] Assay detection limit=2.3. […] Compound data was normalized to cell-only control data.
Evaluation of Bacterial Membrane Integrity with SYTOX Green. The SYTOX Green assay was adapted from the literature. Briefly, to a black wall clear-bottom 96-well plate (Costar 3603) was added 50 μL of PBS per well containing antibiotics at 2-times the indicated concentration. 1 mL of a stationary phase MW2 culture was pelleted at 10,000 g for 1 min and washed 3 times with the same volume of sterile-filtered PBS. The washed cells were diluted to OD600=0.1 (˜4×10^7 CFU/mL) with PBS. SYTOX Green (Molecular Probes) was added to the diluted stationary phase suspension for a final concentration of 5 μM and incubated for 0.5 h at room temperature in the dark. 50 μL of the bacteria/SYTOX Green mixture was added to each well of 96-well plates containing antibiotics and fluorescence was measured at 37° C. with shaking for up to 4 h using a spectrophotometer (SpectraMax M3, Molecular Devices) with excitation and emission wavelengths of 485 and 525 nm, respectively. Lysostaphin (1.25 μg/mL) was used as a positive control. The experiment was performed twice on separate days.

[19] = system: MRSA (USA300LAC) biofilm
Description: as §4, §5, §6

[20] = system: P. aeruginosa PA14; assay: microbe, parasite or virus in culture; settings: Pseudomonas aeruginosa, PA14, read-out: Median MIC
Description: as §1

[21] = system: E. faecium Van-Resistant
Description: as §2

[22] = system: H. pylori; assay: MIC, Gram-negative planktonic strains; settings: Helicobacter pylori
Description: as §1

[23] = system: MRSA (USA300LAC)
Description: as §3

[24] = system: E. faecium Van-Susceptible
Description: as §1

[25] = system: S. aureus biofilms
Description: as §4, §5
Prior to treatment, 48 h biofilms were rinsed in a 96-well plate containing 200 μL PBS/well for one minute and then the peg lid was transferred to the treatment plate. The plate was parafilmed and incubated at 35° C. for 24 h with 150 rpm shaking. Upon 24 h treatment, the peg lid was removed, rinsed in 200 μL PBS buffer twice for 1 min each, then transferred to a recovery plate containing 200 μL TSB+1% Tween-20 per well. The apparatus was placed in a steel tray and sonicated in a water bath sonicator (Branson 1510) for 10 min to dislodge biofilms. The peg lid was subsequently removed and the media-containing plate was incubated for 20 h at 35° C. with 150 rpm shaking to recover biofilms. The MBEC was read as the lowest treatment concentration where no growth occurred, as determined by measuring by OD600 on a plate reader. The values reported are median values from a minimum of two experiments performed on different days.

[26] = system: E. coli UTI89
Description: as §2

[27] = system: MSSA (29213)
Description: as §2

[28] = system: MRSA (USA400MW2)
Description: as §2

[29] = system: E. faecalis Van-Susceptible
Description: as §1

[30] = system: planktonic S. aureus; assay: Antibacterial activity against planktonic bacteria (summary over strains); settings: in words
Description: as §1

[31] = system: P. aeruginosa PA14; settings: P. aeruginosa PA14, one trial only
Description: as §1

[32] = system: V. cholerae; assay: Time-kill study of V. cholerae; format: cell-based; settings: equivalent concentrations
Description: FIG. 11A-11B. Time-kill study of V. cholerae treated with compounds. (FIG. 11A) Treatments were performed at 20 μM in media. (FIG. 11B) Treatments were performed at 2×MIC in PBS. Kan refers to kanamycin, a FDA-approved aminoglycoside. Data points are from a representative experiment. Detection limit=2.3 Log (CFU/ml).

[33] = 0.05% V-r8, absence of bacteria
Description: To examine in vivo cytotoxicity, sterile wounds were generated and inoculated only with water (FIG. 8A) or 0.05% V-r8 (FIG. 8B) in the absence of bacteria. Wound tissue was harvested after 3 days and examined by Hematoxylin & Eosin staining. […] Epi: skin epidermis; Der: skin dermis. Scale bar represents 100 μm. Images are representative of 3 independent samples.
In vivo histological cytotoxicity assessment. […] Samples were fixed in 4% paraformaldehyde in PBS and incubated in 20% sucrose for 24 hours. Tissues were then embedded into Optical Cutting Temperature (OCT) compound (Sakura, California) and snap frozen in liquid nitrogen. 12 μm sections were obtained on a Leica CM1860 UV cryotome (Leica Biosystems, Ernst-Leitz Strasse, Germany), stained with hemotoxylin and eosin (H&E), and visualized using an Axio Scan.Z1 slide scanner (Carl Zeiss, Göttingen, Germany) under 20×/0.8 Apochrome objective as previously described.

[34] = system: V. cholerae El Tor A1552R
[35] = median (IQR), MSSA (29213), 24 h treatment in media
[36] = median (IQR), MRSA (USA300LAC), 24 h treatment in media

CN[C@H](CC(C)C)C(=O)N[C@H]1C(=O)N[C@@H](CC(N)=O)C(=O)N[C@H]2C(=O)N[C@H]3C(=O)N[C@H](C(=O)N[C@H](C(=O)O)c4cc(O)cc(O)c4-c4cc3ccc4O)[C@H](O)c3ccc(c(Cl)c3)Oc3cc2cc(c3O[C@@H]2O[C@H](CO)[C@@H](O)[C@H](O)[C@H]2O[C@H]2C[C@](C)(N)[C@H](O)[C@H](C)O2)Oc2ccc(cc2Cl)[C@H]1O [Vancomycin]
cell killing, time-kill in MHB [1]: required longer treatment time
MIC [2]: 0.375 µM (≈ 0.543 µg/mL)
reduction in biofilm bacterial load (CFU/wound) [3]: not statistically significant
MIC [4]: 100 µM (≈ 145 µg/mL)
MIC [5]: > 32 µM
MIC [6]: 128 µM (≈ 186 µg/mL)
Log CFU/ml counts ([7]; 16 μM in PBS): 4.3 (0.3) Log CFU/ml
Log CFU/ml counts ([7]; 32 μM in PBS): 5.1 (1.0) Log CFU/ml
killing of biofilms after 5 h treatment ([7]; 16 and 32 μM, in words): ineffective
MIC [8]: 0.5 µM (≈ 0.725 µg/mL)
MIC [9]: 0.5 µM (≈ 0.725 µg/mL)
killing of persister cells [10]: ineffective
Minimum Biofilm Eradication Concentration (MBEC) [11, 35]: ≥500 µM
MIC [12]: 512 µM (≈ 742 µg/mL)
increase of MIC in VRE faecalis ([13]; resistant versus susceptible): > 85 fold
MIC [14]: > 128 µM
MIC [15]: 1.5 µM (≈ 2.17 µg/mL)
MIC [16]: 0.5 µM (≈ 0.725 µg/mL)
Minimum Biofilm Eradication Concentration (MBEC) ([17]; median (IQR), MRSA (USA400MW2), 24 h treatment in media): ≥500 µM
SYTOX Green uptake (membrane damage) [18]: no SYTOX Green uptake
Minimum Biofilm Eradication Concentration (MBEC) [19, 36]: ≥400 µM
MIC [20]: > 256 µM
increase of MIC in VRE faecium ([21]; resistant versus susceptible): > 1350 fold
MIC [22]: > 32 µM

N=C(N)NCCC[C@@H](N)C(=O)N[C@H](CCCNC(=N)N)C(=O)N[C@H](CCCNC(=N)N)C(=O)N[C@H](CCCNC(=N)N)C(=O)N[C@H](CCCNC(=N)N)C(=O)N[C@H](CCCNC(=N)N)C(=O)N[C@H](CCCNC(=N)N)C(=O)N[C@H](CCCNC(=N)N)C(N)=O [r8, octa-D-arginine]
Minimum Inhibitory Concentration (MIC) ([23]; USA300): 40 (0) μM
E. faecium MICs Van-Susceptible [24]: >64 µM
ability to eradicate biofilms ([25]; in words): unable to eradicate biofilms
Median MIC ([26]; UTI89): 36 µM
killing of persister cells [10]: no activity
Minimum Biofilm Eradication Concentration (MBEC) ([11]; 29213) biofilm, 24 h): >80 µM
Minimum Inhibitory Concentration (MIC) [27]; 29213: 60 (20) μM
E. faecalis MICs Van-Resistant ([13]; Van-Resistant): >64 µM
Minimum Biofilm Eradication Concentration (MBEC) ([17]; USA400, 24 h): >80 µM
Minimum Inhibitory Concentration (MIC) ([28]; USA400): 20 (0) μM
Minimum Biofilm Eradication Concentration (MBEC) ([19]; USA300, 24 h): >80 µM
E. faecalis MICs Van-Susceptible [29]: >64 µM
E. faecium MICs Van-Resistant ([21]; Van-Resistant): >128 µM

CN[C@H](CC(C)C)C(=O)N[C@H]1C(=O)N[C@@H](CC(N)=O)C(=O)N[C@H]2C(=O)N[C@H]3C(=O)N[C@H](C(=O)N[C@H](C(=O)NCCCCCC(=O)N[C@H](CCCNC(=N)N)C(=O)N[C@H](CCCNC(=N)N)C(=O)N[C@H](CCCNC(=N)N)C(=O)N[C@H](CCCNC(=N)N)C(=O)N[C@H](CCCNC(=N)N)C(=O)N[C@H](CCCNC(=N)N)C(=O)N[C@H](CCCNC(=N)N)C(=O)N[C@H](CCCNC(=N)N)C(N)=O)c4cc(O)cc(O)c4-c4cc3ccc4O)[C@H](O)c3ccc(c(Cl)c3)Oc3cc2cc(c3O[C@@H]2O[C@H](CO)[C@@H](O)[C@H](O)[C@H]2O[C@H]2C[C@](C)(N)[C@H](O)[C@H](C)O2)Oc2ccc(cc2Cl)[C@H]1O [V-r8, vancomycin-D-octaarginine]
antimicrobial activity against planktonic S. aureus [30]: single digit micromolar
Median MIC [31]: >32 µM
cell killing, time-kill in MHB [1]: rapid killing; also recorded: eradicated MRSA to the CFU/ml detection limit
killing relative to V, r8 and untreated cells ([32]; after 4 h): ~5 orders of magnitude
higher killing than kanamycin ([32]; over the first 2 h): 2-3 orders of magnitude
Minimum Inhibitory Concentration (MIC) ([23]; median (IQR), MRSA (USA300LAC)): 2.0 (0.1) μM
better potency over vancomycin in diminishing growth of biofilm-associated bacteria ([25]; in PBS): 160 fold
better potency over vancomycin in diminishing growth of biofilm-associated bacteria ([25]; in media): > 31 fold
minimum biofilm eradication concentrations (MBECs) ([25]; range over S. aureus strains of Table 1): 2.5 to 16 µM
Median MIC ([26]; E. coli UTI89): ≥32 µM
reduction in biofilm bacterial load (CFU/wound) [3]: significant reduction; also recorded: as effective as 2% fusidic acid
Log CFU/ml counts ([7]; 16 μM in PBS): 2.2 (0.2) Log CFU/ml
Log CFU/ml counts ([7]; 32 μM in PBS): 2.0 (0) Log CFU/ml
biofilm-associated MRSA eradicated ([7]; 5 h treatment at 16 and 32 μM): 98%
efficacy against persister cells relative to vancomycin ([10]; at 20 μM): > 1500 fold
killing of persister cells [10]: enhanced killing of persister cells
Minimum Biofilm Eradication Concentration (MBEC) [11, 35]: 16 µM
Minimum Inhibitory Concentration (MIC) ([27]; median (IQR), MSSA (29213)): 1.6 (0.5) μM
SYTOX Green uptake (membrane damage) [18]: no SYTOX Green uptake
Minimum Inhibitory Concentration (MIC) ([28]; median (IQR), MRSA (USA400MW2)): 0.94 (0.2) μM
Minimum Biofilm Eradication Concentration (MBEC) [19, 36]: 9.5 µM
acute toxicity, open wound [33]: no acute toxicity
improvement against VRE faecium (over vancomycin) [21]: 128 fold
Median MIC [34]: 10 µM

Lysostaphin: an antibacterial enzyme that induces membrane permeabilization, positive control
SYTOX Green uptake (membrane damage) [18]: Rapid uptake of SYTOX Green
